{"source": "patent US20260355251A1", "about": "“COMPOSITION FOR PROMOTING HAIR GROWTH” (Idea Therapeutics SL, priority 2023, published 2026)", "key": {"[1]": {"tested_on": "hair follicle cultures", "details": "between ATP and adenosine; cited from earlier work"}, "[2]": {"tested_on": "AGA Model", "test": "Macroscopic blind assessment of hair growth in DHT-induced AGA model mice (Example 5)", "assay_type": "in vivo, C57BL6 mice (males)", "details": "male mice, day 21, intradermal on day 0 and day 3, ATP 100 μM", "experimental": "The compositions for promoting hair growth of the invention were tested in vivo in mice, according to the following procedure.\nA total of 45 6-week-old C57BL6 mice (males) from Charles River Laboratories were used.\nThe animals were acclimatized for 6 days, and they were administered 1 mg of DHT (5α-androstan-17β-ol-3-one, Sigma) in 100 μL of 50% DMSO (Merck)/50% Isotonic Saline Serum (Fresenius Kabi) subcutaneously for […] (5 days a week), resulting 19 administrations, instead of 20, because the dose was omitted on day 21, when the final assessment of hair growth took place. The administration of DHT began at day-4 of the testing.\nThe concentration of ATP in Groups 3, 4, 5 and 6 was 100 μM.\nAfter 4 days of administration of the DHT solution (day 0), the target area was depilated using an electric shaver in the area delimited by a template. Subsequently, depilatory cream was applied with the aim of uniformizing the beginning of the anagen phase in all mice. This procedure was performed using inhalation sedation with 2% Isoflurane, maintaining the body temperature of the animals with an electric blanket and an infrared lamp. (FIG. 1). […]"}, "[3]": {"tested_on": "androgen receptors", "details": "hair follicles; cited from earlier work"}}}
{"smiles": "Nc1ncnc2c1ncn2[C@@H]1O[C@H](COP(=O)(O)OP(=O)(O)OP(=O)(O)O)[C@@H](O)[C@H]1O", "note": "[ATP, adenosine triphosphate]", "values": [{"measurement": "synergistic action on hair growth of hair follicle cultures", "setting": "[1]", "result": "synergistic action"}]}
{"smiles": "Nc1ncnc2c1ncn2[C@@H]1O[C@H](COP(=O)(O)OP(=O)(O)OP(=O)(O)O)[C@@H](O)[C@H]1O", "note": "[ATP non-encapsulated, adenosine triphosphate]", "values": [{"measurement": "hair growth level: Intense (% of mice)", "setting": "[2]; ADSCs high 4 × 10^6, low 1 × 10^6", "result": 80, "unit": "%"}, {"measurement": "hair growth level: Moderate (% of mice)", "setting": "[2]; ADSCs high 4 × 10^6", "result": 20, "unit": "%"}]}
{"smiles": "Nc1ncnc2c1ncn2[C@@H]1O[C@H](CO)[C@@H](O)[C@H]1O", "note": "[adenosine]", "values": [{"measurement": "synergistic action on hair growth of hair follicle cultures", "setting": "[1]", "result": "synergistic action"}]}
{"smiles": "C[C@]12CCC(=O)C[C@@H]1CC[C@@H]1[C@@H]2CC[C@]2(C)[C@@H](O)CC[C@@H]12", "note": "[DHT, 5α-androstan-17β-ol-3-one]", "values": [{"measurement": "affinity towards androgen receptors", "setting": "[3]", "result": "higher affinity towards androgen receptors in the hair follicles"}]}
